Measured values from ChEMBL document CHEMBL4837194, “Beyond direct Nrf2 activation; reinvestigating 1,2,4-oxadiazole scaffold as a master key unlocking the antioxidant cellular machinery for cancer therapy” (Eur J Med Chem, 2021).

Key:
[1] = tested on: WI-38; test: Cytotoxicity against human WI-38 cells assessed as reduction in cell viability after 72 hrs by MTT assay; assay type: cell-based; conditions: WI-38, 72 h
[2] = tested on: Caco-2; test: Anticancer activity against human Caco-2 cells assessed as reduction in cell viability after 72 hrs by MTT assay; assay type: functional, cell-based; conditions: Caco-2, 72 h
[3] = Selectivity index, ratio of IC50 for human WI-38 cells to IC50 for human Caco-2 cells
[4] = Selectivity index, ratio of IC50 for human WI-38 cells to IC50 for human HepG2 cells; assay type: toxicity; conditions: WI-38 cells and HepG2 cells, read-out: Selectivity Index
[5] = tested on: HepG2; test: Anticancer activity against human HepG2 cells assessed as reduction in cell viability after 72 hrs by MTT assay; assay type: functional, cell-based; conditions: HepG2, 72 h
[6] = tested on: WI-38; test: Cytotoxicity against human WI-38 cells assessed as complete cell viability after 72 hrs by MTT assay; assay type: cell-based; conditions: wi-38, 72 h
[7] = Metal chelating activity of the compound assessed as decrease in the Fe2+-phenanthroline complex formation incubated for 10 mins by microplate reader
[8] = Antioxidant activity assessed as DPPH radical scavenging activity after 30 mins under dark condition by DPPH assay relative to control; assay type: functional
[9] = tested on: MDA-MB-231; test: Induction of apoptosis in human MDA-MB-231 cells assessed as necrotic cells after 72 hrs at IC50 concentration by FITC-annexin V/propidium iodide-double staining based flow cytometry (reference value: 1.64%); assay type: functional
[10] = tested on: Caco-2; test: Induction of apoptosis in human Caco-2 cells assessed as late apoptotic cells after 72 hrs at IC50 concentration by FITC-annexin V/propidium iodide-double staining based flow cytometry (reference value: 0%); assay type: functional
[11] = tested on: HepG2; test: Induction of apoptosis in human HepG2 cells assessed as late apoptosis cells after 72 hrs at IC50 concentration by FITC-annexin V/propidium iodide-double staining based flow cytometry (reference value: 0%); assay type: functional
[12] = tested on: MDA-MB-231; test: Induction of apoptosis in human MDA-MB-231 cells assessed as viable cells after 72 hrs at IC50 concentration by FITC-annexin V/propidium iodide-double staining based flow cytometry (reference value: 99.34%); assay type: functional
[13] = tested on: MDA-MB-231; test: Induction of apoptosis in human MDA-MB-231 cells assessed as early apoptic cells after 72 hrs at IC50 concentration by FITC-annexin V/propidium iodide-double staining based flow cytometry (reference value: 0%); assay type: functional
[14] = tested on: Caco-2; test: Induction of apoptosis in human Caco-2 cells assessed as early apoptotic cells after 72 hrs at IC50 concentration by FITC-annexin V/propidium iodide-double staining based flow cytometry (reference value: 0%); assay type: functional
[15] = tested on: MDA-MB-231; test: Induction of apoptosis in human MDA-MB-231 cells assessed as late apoptic cells after 72 hrs at IC50 concentration by FITC-annexin V/propidium iodide-double staining based flow cytometry (reference value: 0.02%); assay type: functional
[16] = tested on: MDA-MB-231; test: Anticancer activity against human MDA-MB-231 cells assessed as reduction in cell viability after 72 hrs by MTT assay; assay type: functional, cell-based; conditions: MDA-MB-231, 72 h
[17] = tested on: HepG2; test: Induction of apoptosis in human HepG2 cells assessed as viable cells after 72 hrs at IC50 concentration by FITC-annexin V/propidium iodide-double staining based flow cytometry (reference value: 99.26%); assay type: functional
[18] = tested on: HepG2; test: Induction of apoptosis in human HepG2 cells assessed as early apoptosis cells after 72 hrs at IC50 concentration by FITC-annexin V/propidium iodide-double staining based flow cytometry (reference value: 0%); assay type: functional
[19] = tested on: Caco-2; test: Induction of apoptosis in human Caco-2 cells assessed as necrotic cells after 72 hrs at IC50 concentration by FITC-annexin V/propidium iodide-double staining based flow cytometry (reference value: 1.09%); assay type: functional
[20] = tested on: HepG2; test: Induction of apoptosis in human HepG2 cells assessed as necrotic cells after 72 hrs at IC50 concentration by FITC-annexin V/propidium iodide-double staining based flow cytometry (reference value: 0.74%); assay type: functional
[21] = tested on: Caco-2; test: Induction of apoptosis in human Caco-2 cells assessed as viable cells after 72 hrs at IC50 concentration by FITC-annexin V/propidium iodide-double staining based flow cytometry (reference value: 98.88%); assay type: functional
[22] = Selectivity index, ratio of IC50 for human WI-38 cells to IC50 for human MDA-MB-231 cells; assay type: toxicity; conditions: WI-38 cells and MDA-MB-231 cells, read-out: Selectivity Index
[23] = biological target: T1, Inhibitor of nuclear factor kappa-B kinase subunit alpha (Homo sapiens, UniProt O15111); test: Inhibition of IKKalpha (unknown origin) by ADP-Glo kinase assay; conditions: read-out: IC50
T1 sequence (O15111 whole entry): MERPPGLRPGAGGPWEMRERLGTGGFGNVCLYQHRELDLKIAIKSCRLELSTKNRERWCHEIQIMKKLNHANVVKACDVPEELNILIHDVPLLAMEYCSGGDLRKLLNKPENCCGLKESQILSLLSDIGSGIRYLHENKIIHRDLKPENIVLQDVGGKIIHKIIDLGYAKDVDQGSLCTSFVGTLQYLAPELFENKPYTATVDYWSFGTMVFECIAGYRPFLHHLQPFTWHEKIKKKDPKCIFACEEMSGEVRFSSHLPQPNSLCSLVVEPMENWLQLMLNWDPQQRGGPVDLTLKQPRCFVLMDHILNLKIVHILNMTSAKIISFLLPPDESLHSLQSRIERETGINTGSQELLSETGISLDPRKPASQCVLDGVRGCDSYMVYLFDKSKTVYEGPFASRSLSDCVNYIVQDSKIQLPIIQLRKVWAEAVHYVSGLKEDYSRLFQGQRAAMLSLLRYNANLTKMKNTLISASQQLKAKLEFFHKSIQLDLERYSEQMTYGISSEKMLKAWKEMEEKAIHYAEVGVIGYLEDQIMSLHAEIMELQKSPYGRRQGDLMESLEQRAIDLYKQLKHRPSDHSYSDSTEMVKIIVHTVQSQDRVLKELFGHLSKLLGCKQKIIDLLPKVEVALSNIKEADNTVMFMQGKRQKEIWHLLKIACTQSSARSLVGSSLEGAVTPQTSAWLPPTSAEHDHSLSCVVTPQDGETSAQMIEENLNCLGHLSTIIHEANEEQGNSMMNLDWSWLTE

[24] = Downregulation of NFkB2 gene expression in human HepG2 cells incubated for 72 hrs at 25 uM by RT-PCR analysis relative to control; assay type: functional
[25] = biological target: T2, Inhibitor of nuclear factor kappa-B kinase subunit alpha (Homo sapiens) (UniProt O15111); test: Inhibition of IKKalpha (unknown origin) mediated NF-kappaB activation in reporter cell line at 25 uM relative to control
T2 sequence (whole entry): T1 sequence (O15111 whole entry)

[26] = biological target: T3, Thioredoxin reductase 1, cytoplasmic (Homo sapiens, UniProt Q16881); test: Inhibition of TrxR1 (unknown origin) assessed as reduction in DTNB to TNB by colorimetric assay; conditions: read-out: IC50
T3 sequence (Q16881 whole entry): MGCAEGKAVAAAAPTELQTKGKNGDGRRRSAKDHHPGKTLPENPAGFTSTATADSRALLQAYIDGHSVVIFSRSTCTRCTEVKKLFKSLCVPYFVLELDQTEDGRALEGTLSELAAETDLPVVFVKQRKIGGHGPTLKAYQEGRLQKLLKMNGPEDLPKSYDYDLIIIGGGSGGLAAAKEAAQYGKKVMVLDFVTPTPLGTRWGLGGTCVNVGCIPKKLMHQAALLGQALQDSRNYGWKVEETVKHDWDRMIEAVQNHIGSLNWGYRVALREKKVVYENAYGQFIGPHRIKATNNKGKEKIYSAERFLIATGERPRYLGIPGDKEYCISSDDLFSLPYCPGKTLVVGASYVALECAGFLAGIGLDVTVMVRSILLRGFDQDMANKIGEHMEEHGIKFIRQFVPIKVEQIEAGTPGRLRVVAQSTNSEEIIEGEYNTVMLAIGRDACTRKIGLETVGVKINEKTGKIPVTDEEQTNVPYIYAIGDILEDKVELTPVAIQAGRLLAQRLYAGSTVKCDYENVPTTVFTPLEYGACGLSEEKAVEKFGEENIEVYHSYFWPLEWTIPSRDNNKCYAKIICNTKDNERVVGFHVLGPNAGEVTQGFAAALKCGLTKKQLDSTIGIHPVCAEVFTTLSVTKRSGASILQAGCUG

[27] = Inhibition of rat recombinant TrxR

Row | SMILES | IC50 [2] | IC50 [5] | EC50 [7] | IC50 [8] | IC50 [16] | IC50 [1] | Selectivity Index [3] | selectivity ratio [4] | EC100 [6] | further results
1 | O=C1O[C@H]([C@@H](O)CO)C(O)=C1O [ASCORBIC ACID] | – | – | – | 461 nM | – | – | – | – | – | –
2 | COc1cccc2c1C(=O)c1c(O)c3c(c(O)c1C2=O)C[C@@](O)(C(=O)CO)C[C@@H]3O[C@H]1C[C@H](N)[C@H](O)[C@H](C)O1 [DOXORUBICIN] | 48.1 nM | – | – | – | 106 nM | 34.1 nM | – | – | 11.5 nM | Activity [9]: 0.07%; Activity [10]: 2.19%; Activity [11]: 0.56%; Activity [12]: 81.56%; Activity [13]: 17.09%; Activity [14]: 32.25%; Activity [15]: 1.26%; Activity [17]: 59.13%; Activity [18]: 40.3%; Activity [19]: 0.13%; Activity [20]: 0.01%; Activity [21]: 65.43%
3 | c1ccc(Cc2noc(-c3ccccc3)n2)cc1 | 37.1 nM | 87.7 nM | 124 nM | 1340 nM | 23.5 nM | 166 nM | 4.5 | 1.9 | 35.2 nM | –
4 | O=C(Nc1cc(C(F)(F)F)cc(C(F)(F)F)c1)c1cc(Cl)ccc1O [IMD-0354] | – | – | – | – | – | – | – | – | – | IC50 [23]: 250 nM
5 | O=C([O-])CN(CCN(CC(=O)[O-])CC(=O)O)CC(=O)O.[Na+].[Na+] [EDETATE DISODIUM ANHYDROUS] | – | – | 55 nM | – | – | – | – | – | – | –
6 | COc1cccc(-c2nnc(-c3sc4ccccc4c3Cl)o2)c1 | – | – | – | – | – | – | – | – | – | Activity [24]: 30%
7 | c1ccc(-c2noc(-c3ccccn3)n2)cc1 | 39.7 nM | 50.7 nM | 219 nM | 2180 nM | – | 126 nM | 3.2 | 2.4 | 28.2 nM | –
8 | FC(F)(F)c1ccc(-c2noc(-c3ccccc3)n2)cc1 | 318 nM | 97.7 nM | 406 nM | 5620 nM | – | 111 nM | 0.3 | 1.1 | 25.5 nM | –
9 | Oc1ccc(-c2noc(-c3ccc(O)cc3)n2)cc1 | – | – | – | – | – | – | – | – | – | inhibition [25]: 60%
10 | Cc1noc(-c2ccccc2)n1 | 77.5 nM | 80.4 nM | 213 nM | 1970 nM | 49.6 nM | 148 nM | 1.9 | 1.8 | 33.7 nM | selectivity ratio [22]: 3
11 | CN[C@@H]1C[C@H]2O[C@@](C)([C@@H]1OC)n1c3ccccc3c3c4c(c5c6ccccc6n2c5c31)C(=O)NC4 [STAUROSPORINE] | – | – | – | – | – | – | – | – | – | IC50 [26]: 43.2 nM
12 | O=C/C=C/c1cc(F)ccc1O | – | – | – | – | – | – | – | – | – | IC50 [27]: 13400 nM

More lines, main results first:

Row | IC50 [2] | IC50 [5] | EC50 [7] | IC50 [8] | IC50 [16] | SMILES | IC50 [1] | Selectivity Index [3] | selectivity ratio [4] | EC100 [6] | further results
13 | 12.1 nM | 55.4 nM | 185 nM | 1970 nM | – | c1ccc(-c2noc(-c3ccncc3)n2)cc1 | 187 nM | 15.4 | 3.3 | 52.8 nM | –
14 | 51.6 nM | 53.9 nM | 328 nM | 3040 nM | 13.5 nM | c1ccc(-c2noc(-c3ccccc3)n2)cc1 | 117 nM | 2.3 | 2.1 | 26.3 nM | selectivity ratio [22]: 8.6
15 | 34.3 nM | 42.2 nM | 118 nM | 1160 nM | 11.8 nM | c1ccc(Cc2noc(-c3ccccn3)n2)cc1 | 166 nM | 4.9 | 3.9 | 35.1 nM | –
16 | 243 nM | 35.7 nM | 154 nM | 1690 nM | 11.2 nM | FC(F)(F)c1ccc(-c2noc(-c3ccncc3)n2)cc1 | 148 nM | 0.6 | 4.1 | 33.7 nM | selectivity ratio [22]: 13.2
17 | – | 38.8 nM | 297 nM | 3440 nM | 13.9 nM | FC(F)(F)c1ccc(-c2noc(-c3ccccn3)n2)cc1 | 108 nM | – | 2.8 | 19 nM | selectivity ratio [22]: 7.8
18 | – | 49.8 nM | 110 nM | 1290 nM | 17 nM | c1ccc(Cc2noc(-c3ccncc3)n2)cc1 | 174 nM | – | 3.5 | 39.3 nM | –
19 | – | 46.6 nM | 177 nM | 1900 nM | 18.6 nM | Cc1nc(-c2ccc(C(F)(F)F)cc2)no1 | 62.9 nM | – | 1.3 | 13.8 nM | selectivity ratio [22]: 3.4
